Here are results for nine molecules from PMC4009402, “Evaluation of a biohybrid photoelectrochemical cell employing the purple bacterial reaction centre as a biosensor for herbicides” (Biosensors & Bioelectronics, 2014).

In assay [1] the target is T1, Rba. sphaeroides reaction centre (QB site) (Cereibacter sphaeroides, UniProt P0C0Y8).
T1 construct: made in house; host or cells: Rba. sphaeroides strain DD13 carrying plasmid pvLMt (written pvLMtX)
In words: Kinetics of charge recombination in photo-oxidised reaction centres in solution (absorbance at 865 nm). Format: biochemical, Rhodobacter sphaeroides. To be noted: for effect on recombination rate (in words): 500 µM agent; for τ1 / τ2 / A1 / A2: 500 µM inhibitor; for τ1 / τ2: 13.2 µM reaction centres, 30 µM UQ0, ± standard error; for A1: amplitude of τ1 component; for A2: amplitude of τ2 component. The method, then: Analysis of the effects of herbicides or inhibitors on the kinetics of charge recombination was performed using a Cary60 spectrophotometer connected to an external 1 cm cuvette holder (Ocean Optics) via a fibre-optic coupler. A white light pulse of 50 ms duration was applied to the sample cuvette at 90° to the pulsed measuring beam by an HL-2000-FHSA white light source with a fast shutter (Ocean Optics) delivering approximately 25 W m^−2 illumination at the cuvette surface. The actinic pulse was triggered by a TGP110 pulse generator (Thurlby Thandur Instruments). […] Test samples were loaded into to a 3×3 mm fluorescence cuvette (Hellma) aligned to the measuring and excitation pulses and absorbance at 865 nm was measured for 20 s after delivery of the light pulse, with a further period of at least 60 s to allow full dark adaptation of the reaction centres before re-excitation. A set of eight kinetic traces were recorded for each sample, averaged, and fitted using a single or double exponential function in Origin 8 (OriginLab).
To ensure this pattern of results was not specific to the conditions within the photoelectrochemical cell, the ability of these inhibitors to replace ubiquinone at the QB site was also tested by measuring the rate of recombination from QA and QB to the primary donor bacteriochlorophyll (P) after excitation with a pulse of white light (see Section 2). As outlined in Section 1, recombination of P^+QA^− or P^+QB^− occurs with lifetimes of ~100 ms and ~1 s, respectively. As the QB quinone is partially lost during purification of reaction centres, assays were conducted in the presence of 30 µM UQ0 to reconstitute QB, the reaction centre concentration being 13.2 µM.

The subject of assay [2] is Blc. viridis reaction centres (tyrosine to phenylalanine mutant near QB pocket). Set-up: method as in Sinning et al., 1989. To be noted: ref Sinning et al., 1989, cited from earlier work.
The target of assay [3] is QB site in the Rba. sphaeroides reaction centre. Also noted: method as in Stein et al., 1984. Conditions: 1 μM reaction centres, 10 mM Tris (pH 8.0), 100 mM NaCl, 0.06% TX-100, 20 μM UQ10; ref Stein et al., 1984; cited from earlier work.
The subject of assay [4] is Blc. viridis reaction centre. Set-up: method as in Sinning et al., 1989. Conditions: ref Sinning et al., 1989; cited from earlier work.
The target in assay [5] is T2, Rba. sphaeroides reaction centre quinone reductase (QB) site (Cereibacter sphaeroides, UniProt P0C0Y8).
T2 construct: made in house; host or cells: Rba. sphaeroides strain DD13 carrying plasmid pvLMt (written pvLMtX)
In words: Determination of the Km(apparent) for UQ0 from photocurrent density. The assay is classed as biochemical, Rhodobacter sphaeroides. To be noted: detergent-free buffer, Michaelis–Menten fit. On the procedure:
Photovoltaic cells were assembled as described above but with the omission of UQ0. Photocurrents of 30 s duration were measured in the absence of UQ0 and after the addition of increasing amounts of UQ0. Maximal currents from three titrations were averaged, plotted as a function of UQ0 concentration then fitted with the Michaelis–Menten equation using Origin 8.0 (OriginLab).
To optimise the concentration of the substrate for the reaction centre quinone reductase (QB) site in the cell the Km^(apparent) for UQ0 was determined by measuring the maximum photocurrent density during a 30 s period of illumination as a function of increasing concentrations of UQ0. A concentration-dependent increase in the photocurrent amplitude was obtained, which was fitted with the Michaelis–Menten equation (Supplementary Fig. 3). […] This Km^(apparent) for UQ0 is, to our knowledge, the strongest reported to date. […] As the present assay was conducted in detergent-free buffer, the stronger Km^(apparent) obtained is consistent with this trend.

A further assay has as its target reaction centre QB site. Also noted: method as in earlier work. To be noted: ref McComb et al., 1990, Paddock et al., 1988, Gerencsér and Maróti, 2008, cited from earlier work.
For another assay, the system named is spinach thylakoids. Set-up: method as in Touloupakis et al., 2005. To be noted: albumin glutaraldehyde matrix; ref Touloupakis et al., 2005; cited from earlier work.
Another assay relates to PSII. To be noted: cited from earlier work.
For assay [6], the target named is T1, Rba. sphaeroides reaction centre (QB site). The assay is described as follows: Inhibition of photocurrent generation in photoelectrochemical cell with reaction centres adhered to a gold electrode. Format: biochemical, Rhodobacter sphaeroides. Conditions: for LOD (IC5): calculated from IC50 and Hill coefficient, 5% change in current; for inhibition of the QB site / photocurrent (in words): present study, detergent-free buffer. On the procedure: To adhere reaction centres the cleaned gold electrode was immersed in 25 µL of a 1 mg mL^−1 (approximately 10 µM) solution of purified reaction centres in 20 mM Tris (pH 8.0)/0.1% LDAO for 1 h at 4 °C in dark. Unbound reaction centres were removed by dipping the electrode in ice-cold 20 mM Tris (pH 8.0) three times. The coated gold electrode was assembled into a glass-bottomed cell along with a Pt counter electrode (Radiometer Analytical), and an Ag/AgCl reference electrode (Radiometer Analytical). The cell was filled with 1 ml of 20 mM Tris (pH 8.0) containing 20 µM horse heart cyt c and 30 µM UQ0 (both from Sigma-Aldrich) and placed above a shutter-controlled 1.5 W 880 nm LED light source (Roithner LaserTechnik), resulting in an illumination intensity of 46 mW cm^−2 at the working electrode. A potential of −100 mV vs SCE was applied and photocurrents measured by chronoamperometry using the Autolab PGSTAT128N potentiostat (Metrohm) controlled by the PC running Autolab Nova 1.4 software (Metrohm).
The cell was incubated for 1 min before measurement of a 30 s photocurrent. All herbicides and inhibitors were purchased from Sigma-Aldrich, and their structures are shown in Supplementary Fig. 2.
For titrations, the photocurrent from a freshly prepared cell was measured for 30 s before and after the addition of increasing concentrations of atrazine, terbutryn or stigmatellin prepared in 20 mM Tris (pH 8.0)/20 µM cyt c/30 µM UQ0. After each addition the cell was equilibrated for 60 s before measuring the photocurrent, which was sufficient to allow stabilisation of the applied current required to maintain a potential of −100 mV vs SCE. Maximal photocurrents were plotted as a function of inhibitor concentration and fitted with a logistic function to determine the IC50 and IC5 (see text). These IC50 values were used to estimate Ki using the Cheng–Prusoff equation (see text).
To quantify the sensitivity of photocurrent generation to atrazine, terbutryn and stigmatellin the maximal photocurrent after a standard period of 30 s was recorded as a function of herbicide or inhibitor concentration. The titration data, expressed as the percentage of the maximum current in the absence of the herbicide/inhibitor, were fitted to a logistic function (Eq. (1)) to determine the IC50.(1) Y=Min+Max−Min/1+([Inhibitor]/IC50)^−HillCoefficient where Max and Min are maximal and minimal photocurrents, respectively. […] Based on this, the LOD can be represented by an IC5 value that can be calculated from the parameters of the IC50 fit (Eq. (2)).
To compare the sensitivity of our photochemical cell device to previous studies employing Rba. sphaeroides reaction centres, the IC50 values were converted to values for the binding affinity of the inhibitor (Ki) using the Cheng–Prusoff equation (Eq. (3)) ([Cheng and Prusoff, 1973])(3) Ki=IC50/1+([S]/Km) where [S] is the substrate concentration and Km is the measured Michaelis constant for UQ0 (see above).

Where [7] appears, read: PSII complexes in glutaraldehyde–BSA matrix on graphite electrode, ref Koblížek et al., 2002.
The mark [8] stands for this setting: PSII reaction centres or BBY particles on screen printed gold electrodes, ref Bhalla and Zazubovich, 2011.
[9] abbreviates: mutant vs normal reaction centre.

Values joined by “and” are separate entries in the source; they are usually repeats but may differ in a detail not shown here. Identical values can stand only once. Like-named read-outs stand apart in the source and are kept apart here.

Take `CN(C)C(=O)Nc1ccc(Cl)c(Cl)c1` [DCMU, 3-(3,4-dichlorophenyl)-1,1-dimethylurea]: in assay [1], the “effect on recombination rate (in words)” value is given as “unaffected”, the τ1 was 0.179 ± 0.012 s, the τ2 came to 1.18 ± 0.04 s and the A1 was determined as 51.7 ± 3.7%. Besides, in [1], the A2 is 48.3 ± 3.7%. Also, the “increase in affinity in mutant” value in [2] (single tyrosine to phenylalanine change) was “at least four orders of magnitude”. Moreover, the Kd (commonly the free concentration of one partner at which half of the binding sites on the other are occupied at equilibrium, for simple one-to-one binding) in [3] was over 800000 nM. Besides, the “inhibitor grouping (in words)” value in assay [4] is “very weak inhibitors”.

As for `COC1=C(OC)C(=O)C(C)=CC1=O` [UQ0, ubiquinone-0], in [5], the Km (commonly the concentration of substrate that gives half-maximal velocity) was 42 ± 2 µM. For the same molecule, the Kd is 175000 nM and 90000 nM at reaction centre QB site (0.0025% LDAO); 480000 nM at reaction centre QB site (0.06% LDAO); 600000 nM at reaction centre QB site (0.1% LDAO).

In the case of `CCNc1nc(Cl)nc(NC(C)C)n1` [atrazine, N^2-ethyl-6-chloro-N^4-isopropyl-1,3,5-triazine-2,4-diamine], in the assay on spinach thylakoids, the IC50 (as a rule, the concentration at which inhibition is half-maximal) was 100 nM and the LOD is reported as 12.7 nM. Further, in assay [1], the “effect on recombination rate (in words)” value is listed as “accelerated significantly”, the τ1 stood at 0.212 ± 0.004 s and the A1 is 100%. For the same molecule, in the assay with PSII (setting [7]), the IC50 is 90 nM and the LOD is reported as 2 nM. The IC50 in the assay with PSII (PSII on screen printed Pt electrode in glutaraldehyde–BSA–glycerol matrix, ref Masojídek et al., 2011) is 890 nM. Moreover, in the assay on PSII (setting [8]), the IC50 was 49 nM and the LOD is 1.15 nM. The Kd in assay [3] was 120000 nM. Moreover, in assay [6], 2100 ± 100 nM corresponded to half-maximal inhibition (IC50); the affinity, expressed as Ki, was 1200 nM; the “LOD (IC5)” value was about 50 nM; the “inhibition of the QB site / photocurrent (in words)” value is given as “strong inhibition”. Moreover, the photocurrent remaining entry in assay [6] (100 µM agent) is given as “less than 10%”. Besides, the “LOD (IC5)” value in [6] (listed as Atrazine) was 49 nM.

On to `CC(C)N1C(=O)c2ccccc2NS1(=O)=O` [bentazon], for which, in assay [1], the “effect on recombination rate (in words)” value is “unaffected”, the τ1 was found to be 0.129 ± 0.015 s, the τ2 is reported as 1.09 ± 0.03 s and the A1 came out at 39.0 ± 5.8%. The A2 in assay [1] was 61.0 ± 3.0%. In addition, the photocurrent remaining result in [6] (500 µM agent) is reported as “greater than 80%”. The “inhibition of the QB site / photocurrent (in words)” value in assay [6] is given as “weak inhibition”.

Consider `N#Cc1cc(Br)c(O)c(Br)c1` [bromoxynil], for which, in [1], the “effect on recombination rate (in words)” value is on record as “unaffected”, the τ1 was determined as 0.038 ± 0.009 s, the τ2 came to 1.14 ± 0.04 s and the A1 stood at 36.1 ± 12.4%. Moreover, the A2 in [1] was determined as 63.9 ± 2.2%. Moreover, the Kd in [3] was 30000 nM. Also, the photocurrent remaining entry in [6] (500 µM agent) is “greater than 80%”. The “inhibition of the QB site / photocurrent (in words)” value in assay [6] was “ineffective”.

For the molecule `COc1cc(CNC(=O)CCCC/C=C/C(C)C)ccc1O` [capsaicin], in assay [1], the “effect on recombination rate (in words)” value was “unaffected”, the τ1 is 0.152 ± 0.011 s, the τ2 was found to be 1.19 ± 0.03 s and the A1 was 41.0 ± 3.8%. In assay [1], the A2 came to 59.0 ± 2.2%. For the same molecule, the photocurrent remaining entry in assay [6] (500 µM agent) was “greater than 80%”.

Turning to `N#Cc1cc(I)c(O)c(I)c1` [ioxynil], in [2] (setting [9]), the “increase in sensitivity to inhibitor in mutant” value is given as 100 fold. For the same molecule, in assay [4], the “inhibitor grouping (in words)” value is “very weak inhibitors”.

Consider `C/C=C(C)/C=C/C=C/[C@H](OC)[C@@H](C)[C@@H](OC)[C@@H](C)CCc1oc2c(O)c(OC)cc(OC)c2c(=O)c1C` [stigmatellin], for which, in assay [1], the “effect on recombination rate (in words)” value was “accelerated significantly”, the τ1 is recorded as 0.095 ± 0.003 s and the A1 came out at 100%. In assay [6], the IC50 is 280 ± 60 nM; the affinity, expressed as Ki, was 165 nM; the “LOD (IC5)” value is recorded as 8.3 nM; the “inhibition of the QB site / photocurrent (in words)” value is reported as “strong inhibition”. For the same molecule, the photocurrent remaining entry in assay [6] (100 µM agent) was “less than 10%”. For the same molecule, the “LOD (IC5)” value in [6] (listed as Stigmatellin) was 10 nM.

For `CCNc1nc(NC(C)(C)C)nc(SC)n1` [terbutryn], in assay [1], the “effect on recombination rate (in words)” value is recorded as “accelerated significantly”, the τ1 is recorded as 0.152 ± 0.004 s and the A1 worked out at 100%. In addition, the “decrease in sensitivity to inhibitor in mutant” value in assay [2] (setting [9]) is 660 fold. Moreover, in [3], the Kd is 3000 nM. Besides, in assay [6], it took 208 ± 10 nM to reach half-maximal inhibition (IC50); the Ki – broadly, the equilibrium dissociation constant of an inhibitor or competing ligand from its target – was found to be 123 nM; the “LOD (IC5)” value is 8.3 nM; the “inhibition of the QB site / photocurrent (in words)” value was “strong inhibition”. Moreover, in assay [6] (100 µM agent), the photocurrent remaining result is on record as “less than 10%”.
